The text below walks through data of paper PMC9234671, “Molecular determinants of αVβ5 localization in flat clathrin lattices – role of αVβ5 in cell adhesion and proliferation” (Journal of Cell Science, 2022).

Assay [1] addresses T1, talin-1 head domain (THD1) (Homo sapiens, UniProt Q9Y490).
T1 construct: pCoofy17-THD1 (1-405) constructs were transformed into Rosetta2(DE3) cells; His-SUMO (N, cleaved yes); made in house; host or cells: E. coli Rosetta2(DE3)
Briefly: Microscale thermophoresis (MST), talin-1 head domain. It counts as binding. The following applies: Atto488-labeled β5 cytoplasmic tail 50–200 nM, 20 mM Tris-HCl pH 7.5, 200 mM NaCl, 1 mM TCEP, 0.05% Tween-20, mean±s.d., n≥5. The source says: Fig. 2. Adaptor protein binding to integrin β subunits. (A) Colocalization of integrin chimeras fused to the promiscuous biotin ligase BirA* (green in merge) with vinculin (red; left panels) or clathrin (red; right panels) in PA-JEB/β4 keratinocytes. Actin is shown in blue. Nuclei are stained with DAPI (cyan). Scale bars: 20 μm. (B) Representative western blots of BioID assays performed using the integrin chimeras shown in A. Quantifications of ARH, Numb and talin signal intensities normalized to streptavidin-HRP levels are shown (n=3; bars show mean±s.d.). (C) Representative western blots of pulldown assays (from two repeats) using synthetic integrin β cytoplasmic domains in RAC-11P cell lysates. […]
pCoofy17-THD1 (1-405) constructs were transformed into Rosetta2(DE3) cells and his-SUMO-THD1 proteins were expressed for 16 h at 20°C after induction with 0.4 mm IPTG. Cells were harvested and resuspended in 25 mM Tris-HCl pH 8.0, 10 mM imidazole, 200 mM NaCl, 1 mM TCEP and 5 μg ml^−1 DNase, and lysed by sonication. […]
All MST measurements were performed on a Monolith NT.115 red-blue (Nanotemper, Munich, Germany) using premium-coated capillaries to reduce non-specific interaction of the proteins with the glass surface. […] Data was analyzed using the MO Affinity Analysis Software (Nanotemper). […]

For a further assay, the target named is T2, full-length human ARH (Homo sapiens, UniProt Q5SW96).
T2 construct: The full-length human ARH gene was cloned into the pETNKI-6xhis-3C-LIC vector; made in house; host or cells: E. coli BL21(DE3)
T2 sequence (Q5SW96 1-308): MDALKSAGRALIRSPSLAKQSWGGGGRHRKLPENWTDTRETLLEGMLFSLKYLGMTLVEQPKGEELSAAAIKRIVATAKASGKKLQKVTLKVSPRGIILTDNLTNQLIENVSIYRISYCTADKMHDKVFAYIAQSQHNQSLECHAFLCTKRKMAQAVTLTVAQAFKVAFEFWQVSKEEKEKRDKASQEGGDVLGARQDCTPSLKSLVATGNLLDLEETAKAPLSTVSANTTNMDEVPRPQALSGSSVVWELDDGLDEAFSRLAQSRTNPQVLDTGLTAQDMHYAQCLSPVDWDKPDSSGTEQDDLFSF
Nature of the assay: Microscale thermophoresis (MST), ARH. It counts as binding. The source says:
(§1) Fig. 2. Adaptor protein binding to integrin β subunits. (A) Colocalization of integrin chimeras fused to the promiscuous biotin ligase BirA* (green in merge) with vinculin (red; left panels) or clathrin (red; right panels) in PA-JEB/β4 keratinocytes. Actin is shown in blue. Nuclei are stained with DAPI (cyan). Scale bars: 20 μm. (B) Representative western blots of BioID assays performed using the integrin chimeras shown in A. Quantifications of ARH, Numb and talin signal intensities normalized to streptavidin-HRP levels are shown (n=3; bars show mean±s.d.). (C) Representative western blots of pulldown assays (from two repeats) using synthetic integrin β cytoplasmic domains in RAC-11P cell lysates.
The full-length human ARH gene was cloned into the pETNKI-6xhis-3C-LIC vector ([Luna-Vargas et al., 2011]) and 6xhis–ARH protein was produced in Bl21(DE3) E. coli cells. Cells were grown at 37°C until an optical density at 600 nm (OD600) of 0.6 was reached. Temperature was reduced to 30°C and protein was expressed upon induction with 0.4 mM IPTG for 3.5 h. Cells were harvested and resuspended in lysis buffer (20 mM HEPES, pH 7.5, 200 mM NaCl, 1 mM TCEP and 5 μg ml^−1 DNase). After sonication, cell debris and insoluble proteins were removed by centrifugation (21,000 g for 30 min). 6xhis–ARH was purified from the soluble fraction using nickel Sepharose beads and eluted in 20 mM HEPES, pH 7.5, 200 mM NaCl, 1 mM TCEP and 250 mM imidazole. Fractions containing 6xhi–ARH were further purified on a SEC650 size exclusion column (Bio-Rad), equilibrated with 20 mM HEPES, pH 7.5, 100 mM NaCl and 1 mM TCEP.
All MST measurements were performed on a Monolith NT.115 red-blue (Nanotemper, Munich, Germany) using premium-coated capillaries to reduce non-specific interaction of the proteins with the glass surface. Both interaction partners (ligand and receptor) were transferred into MST buffer (20 mM Tris-HCl pH 7.5, 200 mM sodium chloride, 1 mM TCEP and 0.05% Tween-20) to avoid artifacts derived from buffer mismatches. […] Data was analyzed using the MO Affinity Analysis Software (Nanotemper).

The target of another assay is T3, Numb-PTB (20-175) (Homo sapiens, UniProt P49757).
T3 construct: A pETNKI-6xhis-3C-Numb-PTB (20-175) construct was expressed in Rosetta2 (DE3) cells; 6xHis-3C (N, cleaved yes); made in house; host or cells: E. coli Rosetta2 (DE3)
T3 sequence (P49757 20-175): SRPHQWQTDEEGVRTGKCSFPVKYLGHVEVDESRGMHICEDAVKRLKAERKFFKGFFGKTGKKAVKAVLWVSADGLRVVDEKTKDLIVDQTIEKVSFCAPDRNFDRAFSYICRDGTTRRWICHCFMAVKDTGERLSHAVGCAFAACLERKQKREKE
Nature of the assay: Microscale thermophoresis (MST), Numb. It counts as binding.
Description: as §1
A pETNKI-6xhis-3C-Numb-PTB (20-175) construct was expressed in Rosetta2 (DE3) cells for 18 h at 20°C. Cells were lysed (25 mM Tris-HCl pH 8.0, 10 mM imidazole, 200 mM NaCl, 1 mM TCEP, 5 μg/ml DNase) and sonicated, after which insoluble proteins and cell debris were removed by centrifugation (21,000 g for 30 min at 4°C). Soluble lysate was applied to a nickel Sepharose column and beads were washed with wash buffer (lysis buffer without DNase) before protein was eluted in wash buffer supplemented with 250 mM imidazole. The 6xhis tag was cleaved off by his-3C protease during dialysis against 25 mM Tris-HCl pH 8.0, 100 mM NaCl, 1 mM TCEP, 16 h at 4°C. Elution fractions were pooled, diluted with six volumes of 20 mM HEPES pH 7.5, 1 mM TCEP and applied to a 1 ml Resource S cation-exchange column (Cytiva). Protein was eluted in a NaCl gradient (50–700 mM) in 25 mM HEPES (pH 7.5). 6xhis-Numb-PTB was concentrated and further purified by size-exclusion chromatography (SEC70 column, Bio-Rad) in 25 mM Tris-HCl pH 8.0, 200 mM NaCl and 1 mM TCEP.
All MST measurements were performed on a Monolith NT.115 red-blue (Nanotemper, Munich, Germany) using premium-coated capillaries to reduce non-specific interaction of the proteins with the glass surface. […] Data was analyzed using the MO Affinity Analysis Software (Nanotemper).
(MST reads how a fluorescent partner responds to local heating, with and without ligand.)

Assay [2] relates to cytoskeletal or clathrin adaptor proteins. Nature of the assay: Peptide pulldown, cytoskeletal or clathrin adaptor proteins. It counts as binding. To be noted: desthiobiotin tail peptide on streptavidin beads, RAC-11P lysate, 4°C, 4 h; western blot; two repeats. How it is done: (§2) Peptide pulldowns were carried out as previously described ([Böttcher et al., 2012]) with the mouse β1 wild-type cytoplasmic tail peptide ([…]-OH) and a scrambled peptide ([…]-OH), mouse β3 wild-type tail peptide ([…]-OH), mouse β5 wild-type tail peptide ([…]-OH), β5 Δ8aa tail peptide ([…]-OH) and scrambled peptide […].
(§3) The tail peptides were synthesized de novo with a desthiobiotin on the N-terminus, coupled to Dynabeads MyOne streptavidin C1 (10 mgml^−1, Invitrogen) and incubated with RAC-11P cell lysates (prepared with M-PER reagent, Thermo Fisher Scientific) at 4°C with rotation for 4 h. After three washes with wash buffer (M-PER diluted 1:1 with PBS), bound proteins were eluted in 2× Laemmli buffer at 95°C for 5 min and separated on an 8% SDS-PAGE gel.

A further assay has as its system Numb. Nature of the assay: Peptide pulldown, Numb. It counts as binding. To be noted: desthiobiotin tail peptide on streptavidin beads, RAC-11P lysate, 4°C, 4 h; western blot; two repeats. How it is done:
as §2, §3
Background: A western blot detects proteins with antibodies after separation by electrophoresis.

The next assay relates to SNX17. Briefly: Peptide pulldown, SNX17. To be noted: desthiobiotin tail peptide on streptavidin beads, RAC-11P lysate, 4°C, 4 h; western blot; two repeats. It counts as binding. As for the experimental part: as §2, §3
For a further assay, the system named is ARH. Briefly: Peptide pulldown, ARH. It counts as binding. The following applies: desthiobiotin tail peptide on streptavidin beads, RAC-11P lysate, 4°C, 4 h; western blot; two repeats. How it is done: as §2, §3
The target of assay [3] is Atto488-labeled integrin β5 cytoplasmic tail. Nature of the assay: MST; 50–200 nM Atto488-labeled integrin-β cytoplasmic tail as ligand; 20 mM Tris-HCl pH 7.5, 200 mM sodium chloride, 1 mM TCEP, 0.05% Tween-20; Monolith NT.115.
Setting [4] is: MST, Atto488-labeled β5 cytoplasmic tail 50–200 nM, 20 mM Tris-HCl pH 7.5, 200 mM NaCl, 1 mM TCEP, 0.05% Tween-20, mean±s.d., n≥5.
Where [5] appears, read: concentration range tested up to 75 µM for β3.

“Also recorded” adds a separate entry of the source. Ends that are not written are not given here.

A word on the Kd: it is the concentration at which binding is half-saturated. A high value points to a looser complex.

T1 sequence (Q9Y490 1-405): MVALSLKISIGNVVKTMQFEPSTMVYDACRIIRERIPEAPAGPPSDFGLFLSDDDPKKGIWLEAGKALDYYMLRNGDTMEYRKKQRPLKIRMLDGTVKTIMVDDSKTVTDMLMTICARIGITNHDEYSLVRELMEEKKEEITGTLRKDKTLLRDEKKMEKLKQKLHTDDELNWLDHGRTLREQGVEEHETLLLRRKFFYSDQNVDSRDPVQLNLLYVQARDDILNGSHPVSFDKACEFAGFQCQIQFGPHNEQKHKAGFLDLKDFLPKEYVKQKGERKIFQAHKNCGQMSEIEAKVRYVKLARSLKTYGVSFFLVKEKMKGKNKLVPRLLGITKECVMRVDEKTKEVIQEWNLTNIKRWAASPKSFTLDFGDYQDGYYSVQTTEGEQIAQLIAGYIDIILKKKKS

Consider “DRREFAKFQSERSRARYEMASNPLYRKPISTHTVDFAFNKFNKSYNGSVD [β5]”, for which the dissociation constant (Kd) in assay [1] worked out at 41.7 ± 9.5 µM; on full-length human ARH (setting [4]), 5.6 ± 1.4 µM; on Numb-PTB (20-175) (setting [4]), 28.5 ± 7.7 µM.
In the case of “DRREFAKFQSERSRARYEMASNPLYRKPISTVVNKSYNGSVD-OH [β5 Δ8 aa, β5 tail peptide carrying a deletion of 8 amino acids between the NPxY and NxxY motifs]”, in assay [2], the “binding of cytoskeletal or clathrin adaptor proteins in pulldown” value was “prevented neither the clustering of β5 in FCLs ([Zuidema et al., 2018]) nor the binding of cytoskeletal or clathrin adaptor proteins to the β5 tail”. Further, the “interaction with Numb in pulldown” value in the assay with Numb is given as “binds considerably more”. Besides, the “interaction with SNX17 in pulldown” value with SNX17 is on record as “abrogated”.
“EYEFEPDKVDTGAKGTKMAKNEKKFRNYTVHNIWESRKVAP-OH [β1 scrambled peptide, scrambled β1 tail peptide, control, reference compound]”: the “interaction with Numb in pulldown” value with Numb was “some background binding”. Also, the “interaction with ARH in pulldown” value in the assay with ARH was “hardly”.
On to “HDRKEFAKFEEERARAKWDTANNPLYKEATSTFTNITYRGT-OH [β3, synthetic integrin β3 cytoplasmic tail peptide]”, for which, at full-length human ARH (setting [5]), the “binding to ARH by MST (β3)” value was “no binding; also recorded: unable to detect binding”. In addition, the “binding to Numb by MST (β3)” value at Numb-PTB (20-175) (setting [5]) was “no binding; also recorded: unable to detect binding”. In the assay with Numb, the “interaction with Numb in pulldown” value is “not β1 and β3, bind to Numb and ARH”. Also, the “interaction with SNX17 in pulldown” value in the assay with SNX17 is given as “interacted strongly”. The “interaction with ARH in pulldown” value in the assay on ARH is “not β1 and β3, bind to Numb and ARH”.
“talin-1 head domain (THD1) (from UniProt P26039 1-405) (domain or fragment)” gave a Kd in assay [3] of 41.7 µM.

B1: Numb-PTB (20-175) (domain or fragment)
chain: SRPHQWQTDEEGVRTGKCSFPVKYLGHVEVDESRGMHICEDAVKRLKAERKFFKGFFGKTGKKAVKAVLWVSADGLRVVDEKTKDLIVDQTIEKVSFCAPDRNFDRAFSYICRDGTTRRWICHCFMAVKDTGERLSHAVGCAFAACLERKQKREKE
Molecule B1 returned a Kd in assay [3] of 28.5 µM.

B2: 6xhis–ARH (natural protein)
chain: MDALKSAGRALIRSPSLAKQSWGGGGRHRKLPENWTDTRETLLEGMLFSLKYLGMTLVEQPKGEELSAAAIKRIVATAKASGKKLQKVTLKVSPRGIILTDNLTNQLIENVSIYRISYCTADKMHDKVFAYIAQSQHNQSLECHAFLCTKRKMAQAVTLTVAQAFKVAFEFWQVSKEEKEKRDKASQEGGDVLGARQDCTPSLKSLVATGNLLDLEETAKAPLSTVSANTTNMDEVPRPQALSGSSVVWELDDGLDEAFSRLAQSRTNPQVLDTGLTAQDMHYAQCLSPVDWDKPDSSGTEQDDLFSF
As to B2, the Kd in assay [3] amounted to 5.6 µM.
